In assay [1] the test system is rat sciatic nerve. As to the kind of experiment: TUNEL assay, preliminary studies. The conditions noted are these: samples treated with camptothecin. The text has this: (§1) Briefly, the injectable tissue hydrogels of this Example were generated by digesting rat sciatic nerves that had been decellularized by inducing cell […] (or apoptosis). Apoptosis can cause cells to form small apoptotic bodies containing cellular components, which can be more easily removed from the matrix. This approach has the potential to enhance matrix preservation and bioactivity, thus having a major impact on tissue engineering. In this Example, rat sciatic nerves were first harvested and decellularized by inducing apoptosis (described elsewhere herein and e,g. FIG. 11). Washing in camptothecin can induce apoptosis. Hypertonic washing (e,g. 4× PBS) can aid in cell removal. DNase treatment can degrade residual DNA content. Treatment with Chondroitinase ABC can be used to remove inhibitory proteoglycans. After the decellularization process, the resulting decellularized tissue can undergo enzymatic processing and further processing to balance pH where necessary. In some cases the decellularized tissue can be lyophilized prior to enzymatic digestion. In this particular example, pepsin was used to digest tissue at an acidic pH. After about […] of enzymatic digestion, the solution can be neutralized and isotonically balanced. The solution was further diluted with PBS. In some embodiments, the solution was diluted to 1/9 th of its volume in 10× PBS. […]

The subject of assay [2] is peripheral nerve tissue. Briefly: Induction of apoptosis ex vivo (active caspase 3 immunochemistry, TUNEL). Further details: species or system Sprague Dawley rats. The conditions noted are these: 10 μM camptothecin, 37° C., 2 days. The method, then: Peripheral nerves were harvested from Sprague Dawley rats and decellularized according to an apoptosis-assisted protocol using 10 μM camptothecin in non-supplemented media at 37° C. for 2 days. Tissue in media without camptothecin was used as a control. Apoptotic agent treatment was succeeded by washes in saline buffered solutions to optimize cell removal. The degree of apoptosis, cellular removal, and matrix preservation was assessed using immunochemistry on nerve tissue sections and fluorescence imaging. Antibodies used to identify apoptosis, cell removal, and tissue preservation include those against active caspase 3 (Abcam); neurofilament (RT-97, DSHB) and 5100 (Dako); and laminin (Sigma), respectively, Apoptosis-mediated DNA fragmentation was assessed using a terminal deoxynucleotidyl transferase dUTP nick end labeling (TUNEL) assay. Total DNA content was quantified using a Picogreen DNA assay (Life Technologies) according to manufacturer's instructions. […] For FIGS. 5A and 5B, the images are fresh nerve (top half) and apoptosis decellularized nerve (bottom half). FIG. 5A was labeled for neurons (neurofilament, green), Schwann cells (S100, red), and nuclei (DAPI, blue). […] Induction of apoptosis was confirmed in treated nerve tissue by an increase in active caspase 3, an early mediator of apoptosis. […]

For assay [3], the system named is peripheral nerve tissue. As to the kind of experiment: Picogreen DNA assay, total DNA content of apoptosis-decellularized peripheral nerve. Further details: species or system Sprague Dawley rats. On the procedure: Peripheral nerves were harvested from Sprague Dawley rats and decellularized according to an apoptosis-assisted protocol using 5 μM camptothecin in non-supplemented media at 37° C. for 1 day. Tissue in media without camptothecin, an apoptotic agent, was used as a control. Apoptotic agent treatment was succeeded by washes in saline buffered solutions to optimize cell removal. Furthermore, the tissue was treated with 75 u/mL DNAse for 24 hours to ensure DNA removal. The degree of apoptosis, cellular removal, and matrix preservation was assessed using immunochemistry on nerve tissue sections and fluorescence imaging (FIG. 2). Antibodies used to identify apoptosis, cell removal, and tissue preservation include those against active caspase 3 (Abcam); neurofilament (RT-97, DSHB) and 5100 (Dako); and laminin (Sigma), respectively. […] FIGS. 2B and 2C show nerves treated with 5 μM for 1 day, washed with a hypertonic, and either washed with a […] or treated for 24 hours with DNAse, respectively. […] FIGS. 2E and 2F show treatment with higher camptothecin (10 μM), again for 1 day, and washed similarly to tissue in FIGS. 2B and 2C. These images depict 1) apoptosis induction is necessary prior to washing to effectively remove cellular components and 2) combing apoptosis induction with washes in non-isotonic solutions achieves cellular removal of peripheral nerve tissue. Total DNA content was quantified using a Picogreen DNA assay (Life Technologies) according to manufacturer's instructions.

The subject of assay [4] is rat sciatic nerve. Briefly: QuantiFluor dsDNA assay, residual DNA content in tissue. The conditions noted are these: apoptosis decellularization, QuantiFluor dsDNA kit.
Description: as §1

Results on one compound are retold here after US20210046125A1, “DECELLULARIZED TISSUES, HYDROGELS THEREOF, AND USES THEREOF” (UNIVERSITY OF FLORIDA RESEARCH FOUNDATION, priority 2018, published 2021).

SMILES strings stand for the structures.

In the case of `CC[C@@]1(O)C(=O)OCc2c1cc1n(c2=O)Cc2cc3ccccc3nc2-1` [camptothecin], the “apoptosis by TUNEL assay” value in the assay on rat sciatic nerve [1] was “enhanced apoptosis”. Besides, in the assay with peripheral nerve tissue [2], the “apoptosis ex vivo (caspase 3 activation and DNA fragmentation)” value was “sufficient to elicit aspects of apoptosis ex vivo”. Besides, the “reduction in DNA compared to fresh nerve” value is 71.9% in the assay on peripheral nerve tissue [3] (5 μM camptothecin 1 day, hypertonic then hypotonic wash); 95.1% in the assay on peripheral nerve tissue [3] (5 μM camptothecin 1 day, hypotonic wash replaced with DNAse treatment); 57.3% with peripheral nerve tissue [3] (10 μM camptothecin 1 day, hypertonic then hypotonic wash); 95.8% with peripheral nerve tissue [3] (10 μM camptothecin 1 day, hypotonic wash replaced with DNAse treatment). In the assay on rat sciatic nerve [4], the DNA removal entry is reported as “greater than 90%”.
